Some results are limits rather than exact numbers.

One test deals with T1, BCAT2 (Homo sapiens, UniProt O15382).
T1 sequence (O15382 28-392): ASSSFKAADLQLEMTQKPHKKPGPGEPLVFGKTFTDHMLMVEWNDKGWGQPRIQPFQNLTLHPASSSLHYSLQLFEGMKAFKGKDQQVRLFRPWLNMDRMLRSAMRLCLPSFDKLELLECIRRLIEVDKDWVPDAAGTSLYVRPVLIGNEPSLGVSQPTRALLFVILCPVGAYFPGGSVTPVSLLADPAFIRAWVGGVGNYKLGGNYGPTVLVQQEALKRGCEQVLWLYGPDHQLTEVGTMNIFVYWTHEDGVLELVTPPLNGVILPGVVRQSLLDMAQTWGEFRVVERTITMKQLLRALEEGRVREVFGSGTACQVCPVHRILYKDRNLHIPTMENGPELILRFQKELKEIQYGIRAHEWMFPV
As to the kind of experiment: BCAT2 in vitro enzyme inhibition assay (resazurin/diaphorase-coupled fluorescence). Format: biochemical. The settings on record: average where tested multiple times. A digest of the protocol:
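Coupled fluorescence readout: glutamate formed from L-leucine/α-ketoglutarate transamination drives GDH/NAD/diaphorase reduction of resazurin (Ex 540/Em 590). Human BCAT2 was first exposed 1 h at room temperature to compound, top final 100 μM in 3-fold, 10-point series; substrate reaction ran 1 h before SDS quench, in technical duplicate with DMSO max and enzyme-free min controls.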

In the next test the target is T2, hBCAT1 (Homo sapiens, UniProt P54687).
T2 sequence (P54687 1-386): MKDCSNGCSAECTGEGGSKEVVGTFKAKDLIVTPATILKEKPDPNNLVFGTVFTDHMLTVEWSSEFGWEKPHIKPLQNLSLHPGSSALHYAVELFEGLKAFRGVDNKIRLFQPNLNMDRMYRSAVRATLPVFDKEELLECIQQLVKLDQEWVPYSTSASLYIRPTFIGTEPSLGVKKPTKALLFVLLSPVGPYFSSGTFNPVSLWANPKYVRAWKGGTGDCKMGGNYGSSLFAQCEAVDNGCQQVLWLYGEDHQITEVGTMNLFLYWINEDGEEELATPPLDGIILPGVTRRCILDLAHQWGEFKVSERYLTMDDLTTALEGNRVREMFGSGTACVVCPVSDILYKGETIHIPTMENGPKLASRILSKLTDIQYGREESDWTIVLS
The test can be described thus: BCAT1 in vitro enzyme inhibition assay (resazurin/diaphorase-coupled fluorescence). It counts as biochemical. The settings on record: average where tested multiple times. Here is the method: BCAT1 In Vitro Enzyme Inhibition Assay
Meanwhile the Substrate Mix was prepared.
Test Compound Preparation:
Test compounds were prepared at 50× final concentration in DMSO, 1 to 3 dilutions were made for 10 points. The compounds were added to the assay as a 1 to 50 dilution (1 μL in 50 μL) to yield a top assay final concentration of 100 μM, decreasing 3-fold for 10 points. […] All tests were performed in technical duplicate.
Where a compound was tested multiple times, the average value of the tests is reported.
In general terms: Resazurin is reduced to fluorescent resorufin, in cell work by metabolically active cells.

One may read the IC50 as the concentration at which inhibition is half-maximal. Turning to `CC(C)(O)c1nc2cnc(-n3cncn3)cc2n1[C@@H]1CCC[C@H](NC(=O)c2ccc(Br)s2)C1` [Example 92, 5-bromo-N-((1S,3R)-3-(2-(2-hydroxypropan-2-yl)-6-(1H-1,2,4-triazol-1-yl)-1H-imidazo[4,5-c]pyridin-1-yl)cyclohexyl)thiophene-2-carboxamide], the IC50 against BCAT2 was greater than 1000 nM; on hBCAT1, greater than 5000 nM.

For the compound `O=C(N[C@H]1CCC[C@@H](n2c(-n3cccn3)nc3cnc(-n4ccnn4)cc32)C1)c1ncc(C(F)F)s1` [Example 57, N-((1S,3R)-3-(2-(1H-pyrazol-1-yl)-6-(1H-1,2,3-triazol-1-yl)-1H-imidazo[4,5-c]pyridin-1-yl)cyclohexyl)-5-(difluoromethyl)thiazole-2-carboxamide], the figures for the IC50 against BCAT2 and against hBCAT1 were 500 to 1000 nM and greater than 5000 nM, respectively.

For the compound `CC(C)Cc1nc2cnc(-c3nc[nH]n3)cc2n1[C@@H]1C[C@H](NC(=O)c2ccc(Cl)s2)CC(F)(F)C1` (stereo in doubt) [Example 454, 5-chloro-N-((1S,5R)-3,3-difluoro-5-(2-isobutyl-6-(1H-1,2,4-triazol-3-yl)-1H-imidazo[4,5-c]pyridin-1-yl)cyclohexyl)thiophene-2-carboxamide], the IC50 against BCAT2 was no more than 100 nM; against hBCAT1 it was less than 500 nM.

In the case of `O=C(N[C@H]1CCC[C@@H](n2c(-c3ccccc3F)nc3cnc(N4CCC4)cc32)C1)c1ccc(Br)s1` [Example 301, N-((1S,3R)-3-(6-(azetidin-1-yl)-2-(2-fluorophenyl)-1H-imidazo[4,5-c]pyridin-1-yl)cyclohexyl)-5-bromothiophene-2-carboxamide], the results for the IC50 on BCAT2 and against hBCAT1 were greater than 1000 nM and greater than 5000 nM, respectively.

Turning to `CC(C)(O)c1cnn(-c2cc3c(cn2)nc(-c2ccccn2)n3[C@@H]2CCC[C@H](NC(=O)c3ncc(C(F)F)s3)C2)n1` [Example 70, 5-(difluoromethyl)-N-((1S,3R)-3-(6-(4-(2-hydroxypropan-2-yl)-2H-1,2,3-triazol-2-yl)-2-(pyridin-2-yl)-1H-imidazo[4,5-c]pyridin-1-yl)cyclohexyl)thiazole-2-carboxamide], the IC50 against BCAT2 was no more than 100 nM; on hBCAT1, greater than 5000 nM.

`Cn1ccc(Oc2cc3c(cn2)nc(-c2ncccc2F)n3[C@@H]2CCC[C@H](NC(=O)c3ncc(C(F)F)s3)C2)n1` [Example 268, 5-(difluoromethyl)-N-((1S,3R)-3-(2-(3-fluoropyridin-2-yl)-6-((1-methyl-1H-pyrazol-3-yl)oxy)-1H-imidazo[4,5-c]pyridin-1-yl)cyclohexyl)thiazole-2-carboxamide]: the IC50 against BCAT2 was 500 to 1000 nM; against hBCAT1, greater than 5000 nM.

Consider `CC(C)Cc1nc2cnc(-c3ncccn3)cc2n1[C@H]1C[C@H](O)C[C@@H](NC(=O)c2ncc(Cl)s2)C1` (stereo in doubt) [Example 398, 5-chloro-N-((1S,3R,5R)-3-hydroxy-5-(2-isobutyl-6-(pyrimidin-2-yl)-1H-imidazo[4,5-c]pyridin-1-yl)cyclohexyl)thiazole-2-carboxamide], for which the IC50 at BCAT2 is no more than 100 nM; at hBCAT1 it was less than 500 nM.

Consider `CNC(=O)c1ccc2c(c1)nc(-c1ccccn1)n2C1CC(NC(=O)c2ccc(Br)s2)CN(C(N)=O)C1` (stereo not shown) [Example 293, 1-(5-(5-bromothiophene-2-carboxamido)-1-carbamoylpiperidin-3-yl)-N-methyl-2-(pyridin-2-yl)-1H-benzo[d]imidazole-5-carboxamide], for which the IC50 is no more than 100 nM against BCAT2 and 1000 to 5000 nM at hBCAT1.

With `CC(C)Cc1nc2cnc(-n3nccn3)cc2n1[C@H]1CCC[C@@H](NC(=O)c2ccc(Cl)s2)[C@@H]1O` [Example 394, 5-chloro-N-((1R,2S,3S)-2-hydroxy-3-(2-isobutyl-6-(2H-1,2,3-triazol-2-yl)-1H-imidazo[4,5-c]pyridin-1-yl)cyclohexyl)thiophene-2-carboxamide], the values for the IC50 against BCAT2 and against hBCAT1 were greater than 1000 nM and 1000 to 5000 nM, respectively.

With `CC(=O)N1CC(NC(=O)c2ccc(Br)s2)CC(n2c(-c3ccccn3)nc3cc(-c4ncon4)ccc32)C1` (stereo not shown) [Example 284, N-(5-(5-(1,2,4-oxadiazol-3-yl)-2-(pyridin-2-yl)-1H-benzo[d]imidazol-1-yl)-1-acetylpiperidin-3-yl)-5-bromothiophene-2-carboxamide], the IC50 against BCAT2 was no more than 100 nM; at hBCAT1, 1000 to 5000 nM.

For `O=C(N[C@H]1CCC[C@@H](n2c(-c3ccccn3)nc3cc(-n4cncn4)ncc32)C1)c1ccc(Br)s1` [Example 150, 5-bromo-N-((1S,3R)-3-(2-(pyridin-2-yl)-6-(1H-1,2,4-triazol-1-yl)-3H-imidazo[4,5-c]pyridin-3-yl)cyclohexyl)thiophene-2-carboxamide], the IC50 against BCAT2 is 500 to 1000 nM; at hBCAT1, greater than 5000 nM.

On to `C[C@@H]1CCCN1c1cc2c(cn1)nc(-c1ccccc1F)n2[C@@H]1CCC[C@H](NC(=O)c2ncc(Cl)s2)C1` [Example 195, 5-chloro-N-((1S,3R)-3-(2-(2-fluorophenyl)-6-((R)-2-methylpyrrolidin-1-yl)-1H-imidazo[4,5-c]pyridin-1-yl)cyclohexyl)thiazole-2-carboxamide], for which the IC50 against BCAT2 was in the range of 100 to 500 nM; on hBCAT1, 1000 to 5000 nM.

In the case of `O=C(N[C@H]1CCC[C@@H](n2c(-c3ccccn3)nc3cc(-n4nccn4)ncc32)C1)c1ccc(Br)s1` [Example 151, 5-bromo-N-((1S,3R)-3-(2-(pyridin-2-yl)-6-(2H-1,2,3-triazol-2-yl)-3H-imidazo[4,5-c]pyridin-3-yl)cyclohexyl)thiophene-2-carboxamide], the figures for the IC50 against BCAT2 and at hBCAT1 were no more than 100 nM and greater than 5000 nM, respectively.

As to `O=C(N[C@H]1CCC[C@@H](n2c(-c3ccccn3)nc3cc(-c4cnco4)ncc32)C1)c1ccc(Br)s1` [Example 154, 5-bromo-N-((1S,3R)-3-(6-(oxazol-5-yl)-2-(pyridin-2-yl)-3H-imidazo[4,5-c]pyridin-3-yl)cyclohexyl)thiophene-2-carboxamide], the figures for the IC50 against BCAT2 and at hBCAT1 were 500 to 1000 nM and greater than 5000 nM, respectively.

With `O=C(NC1COCC(n2c(-c3ccccn3)nc3cnc(-n4ccnn4)cc32)C1)c1ncc(C(F)F)s1` (single isomer, unassigned) [Example 146, 5-(difluoromethyl)-N-(5-(2-(pyridin-2-yl)-6-(1H-1,2,3-triazol-1-yl)-1H-imidazo[4,5-c]pyridin-1-yl)tetrahydro-2H-pyran-3-yl)thiazole-2-carboxamide], the half-maximal inhibitory concentration (IC50) on BCAT2 is greater than 1000 nM; against hBCAT1, greater than 5000 nM.

In the case of `O=C(NC1COCC(n2c(-c3ncccc3F)nc3cnc(-n4ccnn4)cc32)C1)c1ncc(C(F)F)s1` (single isomer, unassigned) [Example 144, 5-(difluoromethyl)-N-(5-(2-(3-fluoropyridin-2-yl)-6-(1H-1,2,3-triazol-1-yl)-1H-imidazo[4,5-c]pyridin-1-yl)tetrahydro-2H-pyran-3-yl)thiazole-2-carboxamide], the IC50 at BCAT2 is 500 to 1000 nM; at hBCAT1, greater than 5000 nM.

In the case of `CC(C)Cc1nc2cnc(-c3ccccc3F)cc2n1[C@@H]1CCC[C@H](NC(=O)c2ncc(Cl)s2)C1` [Example 206, 5-chloro-N-((1S,3R)-3-(6-(2-fluorophenyl)-2-isobutyl-1H-imidazo[4,5-c]pyridin-1-yl)cyclohexyl)thiazole-2-carboxamide], the IC50 against BCAT2 is 100 to 500 nM; at hBCAT1 it was greater than 5000 nM.

On to `Cc1cn(-c2cc3c(cn2)nc(-c2ccccn2)n3[C@@H]2CCC[C@H](NC(=O)c3ccc(Br)s3)C2)nn1` [Example 40, 5-bromo-N-((1S,3R)-3-(6-(4-methyl-1H-1,2,3-triazol-1-yl)-2-(pyridin-2-yl)-1H-imidazo[4,5-c]pyridin-1-yl)cyclohexyl)thiophene-2-carboxamide], for which the IC50 was no more than 100 nM at BCAT2 and 1000 to 5000 nM at hBCAT1.

`CC(=O)N1CC(NC(=O)c2ccc(Br)s2)CC(n2c(-c3ccccn3)nc3ccc(C#N)cc32)C1` (stereo not shown) [Example 289, N-(1-acetyl-5-(6-cyano-2-(pyridin-2-yl)-1H-benzo[d]imidazol-1-yl)piperidin-3-yl)-5-bromothiophene-2-carboxamide]: the figures for the IC50 against BCAT2 and against hBCAT1 were 100 to 500 nM and greater than 5000 nM, respectively.

On to `Cc1nc2cnc(-n3nccn3)cc2n1[C@@H]1CCC[C@H](NC(=O)c2ccc(Br)s2)C1` [Example 51, 5-bromo-N-((1S,3R)-3-(2-methyl-6-(2H-1,2,3-triazol-2-yl)-1H-imidazo[4,5-c]pyridin-1-yl)cyclohexyl)thiophene-2-carboxamide], for which the 50% inhibitory concentration (IC50) against BCAT2 was greater than 1000 nM; on hBCAT1, greater than 5000 nM.

Source of the values: patent US20260159512A1, “BCAT2 INHIBITORS” (AGIOS PHARMACEUTICALS, INC., priority 2021, published 2026).
